From publication PMC4660440 (Scientific Reports, 2015)
Like-named read-outs stand apart in the source and are kept apart here.

Experiments:
Format in all cases: cell-based
HeLa = assay: MTT cytotoxicity assay, HeLa; settings: drug exposure 48 h, mean ± SD (n = 3), read-out: Cytotoxic activity (IC50) HeLa
Protocol: (§1) HeLa, BGC823, A-549, MCF-7 and HT-7702 cell lines were obtained from the ATCC. […] Tumor cells (3500–13,000) were seeded into 96-well microtest plates in 100 μL of culture medium per well, incubated for 48 h in the presence or absence of test compounds (8 different concentrations ranging from 100 to 0.01 μg/mL). For quantitative estimation of cytotoxicity, the (MTT) method was used, essentially performed as described previously. Briefly, cells were washed twice with PBS, fixed for 15 min in 1% glutaraldehyde solution, rinsed twice in PBS, and stained in 0.5% MTT solution for 4 h at 37 °C. […] The initial seeding densities varied among the cell lines to ensure a final absorbance reading in control (untreated) cultures within the range of 0.6–0.8 A492 units. Drug exposure was carried out for 2 days, and the IC50 value, i.e., the drug concentration that decreased the absorbance by 50%, was extrapolated from dose-response data. Each test was performed in triplicate, and the absorbance readings between the triplicates varied by no more than 10%.

BGC-823 = assay: MTT cytotoxicity assay, BGC-823; settings: Homo sapiens, BGC-823, drug exposure 48 h, mean ± SD (n = 3), read-out: Cytotoxic activity (IC50) BGC-823
Protocol: as §1

A549 = assay: MTT cytotoxicity assay, A549; settings: Homo sapiens, A549, drug exposure 48 h, mean ± SD (n = 3), read-out: Cytotoxic activity (IC50) A549
Protocol: as §1

[1] = MTT cytotoxicity assay, normal hepatic cell line HL-7702; settings: HL-7702 normal hepatic cells, human normal hepatic immortal cell line, drug exposure 48 h, mean ± SD (n = 3), read-out: Cytotoxic activity (IC50) HL-7702
Protocol: as §1

MCF-7 = assay: MTT cytotoxicity assay, MCF-7; settings: Homo sapiens, MCF7, drug exposure 48 h, mean ± SD (n = 3), read-out: Cytotoxic activity (IC50) MCF-7
Protocol: as §1

Row | Structure (SMILES) | IC50 (HeLa; Homo sapiens, HeLa, 48 h) | IC50 (BGC-823) | IC50 (A549) | IC50 at 48 h [1] | IC50 (MCF-7) | IC50 (HeLa)
1 | COc1ccc(Br)cc1N[C@@H]1c2cc3c(cc2[C@@H](c2cc(OC)c(O)c(OC)c2)[C@H]2C(=O)OC[C@@H]21)OCO3 [Compound 14′] | 6.47 ± 0.17 µM | 22.2 ± 2.02 µM | 54.3 ± 4.49 µM | 87.6 ± 5.04 µM | 4.21 ± 0.25 µM | 
2 | COc1cc([C@@H]2c3cc4c(cc3[C@@H](Nc3cccc(Br)c3)[C@H]3COC(=O)[C@H]23)OCO4)cc(OC)c1OC [Compound 5] | 9.01 ± 0.11 µM | 11.2 ± 3.61 µM | 13.4 ± 2.54 µM | 13.58 ± 0.11 µM | 8.35 ± 0.42 µM | 
3 | COc1cc([C@@H]2c3cc4c(cc3[C@@H](Nc3cccc(Cl)c3)[C@H]3COC(=O)[C@H]23)OCO4)cc(OC)c1O [Compound 6′] | 5.13 ± 0.05 µM | 6.59 ± 0.21 µM | 5.03 ± 1.07 µM | 32.5 ± 0.86 µM | 4.75 ± 0.37 µM | 
4 | COc1cccc(N[C@@H]2c3cc4c(cc3[C@@H](c3cc(OC)c(O)c(OC)c3)[C@H]3C(=O)OC[C@@H]32)OCO4)c1 [Compound 13′] | 12.3 ± 0.74 µM | 13.8 ± 1.42 µM | 7.27 ± 2.38 µM | 39.8 ± 2.73 µM | 11 ± 1.26 µM | 
5 | COc1cc([C@@H]2c3cc4c(cc3[C@@H](Nc3cccc(Br)c3)[C@H]3COC(=O)[C@H]23)OCO4)cc(OC)c1O [Compound 5′] | 8.83 ± 0.12 µM | 13.6 ± 0.16 µM | 11.8 ± 0.74 µM | 44.3 ± 1.78 µM | 10.7 ± 1.48 µM | 
6 | COc1ccc(Cl)cc1N[C@@H]1c2cc3c(cc2[C@@H](c2cc(OC)c(O)c(OC)c2)[C@H]2C(=O)OC[C@@H]21)OCO3 [Compound 15′] | 5.89 ± 0.48 µM | 27.1 ± 1.17 µM | 29.7 ± 1.67 µM | 67.6 ± 4.32 µM | 2.16 ± 0.37 µM | 
7 | COc1cc([C@@H]2c3cc4c(cc3[C@@H](Nc3ccc(F)cc3)[C@H]3COC(=O)[C@H]23)OCO4)cc(OC)c1OC [Compound 10] | 17.51 ± 0.04 µM | 17 ± 0.18 µM | 12.1 ± 0.63 µM | 27.4 ± 1.98 µM | 7.06 ± 0.37 µM | 
8 | COc1cc([C@@H]2c3cc4c(cc3[C@@H](Nc3cccc(Cl)c3)[C@H]3COC(=O)[C@H]23)OCO4)cc(OC)c1OC [Compound 6] | 5.43 ± 0.27 µM | 9.32 ± 1.79 µM | 7.23 ± 0.95 µM | 35.27 ± 0.21 µM | 6.57 ± 0.15 µM | 
9 | COc1cc([C@@H]2c3cc4c(cc3[C@@H](Nc3ccc(Br)cc3)[C@H]3COC(=O)[C@H]23)OCO4)cc(OC)c1OC [Compound 8] | 42.1 ± 0.91 µM | 46.2 ± 2.97 µM | 52.9 ± 4.36 µM | 27.1 ± 2.31 µM | 19.7 ± 0.62 µM | 
10 | COc1ccccc1N[C@@H]1c2cc3c(cc2[C@@H](c2cc(OC)c(OC)c(OC)c2)[C@H]2C(=O)OC[C@@H]21)OCO3 [Compound 11] | 13.4 ± 1.31 µM | 14.2 ± 0.98 µM | 14.1 ± 0.37 µM | 37.5 ± 1.75 µM | 10.2 ± 0.61 µM | 
11 | COc1cc([C@@H]2c3cc4c(cc3[C@@H](Nc3cccc(F)c3)[C@H]3COC(=O)[C@H]23)OCO4)cc(OC)c1OC [Compound 7] | 3.12 ± 0.18 µM | 5.21 ± 1.32 µM | 6.8 ± 0.31 µM | 29.9 ± 0.74 µM | 4.05 ± 0.26 µM | 
12 | COc1cccc(N[C@@H]2c3cc4c(cc3[C@@H](c3cc(OC)c(OC)c(OC)c3)[C@H]3C(=O)OC[C@@H]32)OCO4)c1 [Compound 13] | 11.6 ± 0.83 µM | 12.7 ± 1.06 µM | 12.4 ± 0.38 µM | 38.8 ± 2.37 µM | 13.8 ± 3.98 µM | 
13 | COc1cc([C@@H]2c3cc4c(cc3[C@@H](Nc3ccc(Cl)cc3)[C@H]3COC(=O)[C@H]23)OCO4)cc(OC)c1O [Compound 9′] | 16.7 ± 1.31 µM | 14.3 ± 1.14 µM | 29.8 ± 0.75 µM | 15.8 ± 1.17 µM | 37.68 ± 0.16 µM | 
14 | COc1cc([C@@H]2c3cc4c(cc3[C@@H](Nc3cccc(F)c3)[C@H]3COC(=O)[C@H]23)OCO4)cc(OC)c1O [Compound 7′] | 5.07 ± 0.31 µM | 2.24 ± 0.06 µM | 3.88 ± 0.33 µM | 21.4 ± 1.57 µM | 3.14 ± 0.15 µM | 
15 | COc1cc([C@@H]2c3cc4c(cc3[C@@H](O[C@@H]3O[C@@H]5CO[C@@H](C)O[C@H]5[C@H](O)[C@H]3O)[C@H]3COC(=O)[C@H]23)OCO4)cc(OC)c1O [Etoposide, reference compound] | 59.4 ± 2.45 µM | 25.5 ± 1.42 µM | 20.1 ± 1.95 µM | 24.6 ± 3.82 µM | 25.3 ± 1.93 µM | 59.4 ± 2.45 µM
16 | COc1cc([C@@H]2c3cc4c(cc3[C@@H](Nc3ccccc3Br)[C@H]3COC(=O)[C@H]23)OCO4)cc(OC)c1O [2′] | 31.3 ± 1.43 µM | 28.7 ± 1.04 µM | 44.9 ± 3.12 µM | 47.4 ± 3.14 µM | 27.6 ± 0.91 µM | 
